Experimental data as given in patent US20210361733A1, “Prevention and Treatment of SARS-CoV-2 Infection by Mentha piperita and Flos chrysanthemi Extracts alone, and their Combination” (priority 2021, published 2021).
Entries after “also recorded” stand apart in the source; their conditions may differ.

Experiments:
SARS-CoV-2 [1] = assay type: cell-based
Vero cell line = experiment: Cytotoxicity of herbal extracts on Vero cell line, MTT assay; conditions: concentration not printed
SARS-CoV-2 [2] = conditions: prophylactic/therapeutic (full-time) setting, at 37° and 4° C., by CPE and RT-PCR; cited from earlier work

CCN(CC)CCCC(C)Nc1ccnc2cc(Cl)ccc12 (stereo not drawn) [Chloroquine phosphate]
viral load inhibition (increasing Cq value, decreasing percent viral copy number) (SARS-CoV-2 [1]; reference drugs: Chloroquine phosphate 9.69 μM/mL, Remdesivir 8.297 μM/mL): viral load inhibition | inhibition of SARS-CoV-2 (SARS-CoV-2 [1]; viral full entry and post entry treatment points): inhibition of SARS-CoV-2 | cytotoxicity / percent inhibition (MTT assay) (Vero cell line): non-toxic | cytotoxicity / percent inhibition (MTT assay) (Vero cell line; listed as Chloroquine): no inhibition

CCC(CC)COC(=O)[C@H](C)N[P@](=O)(OC[C@H]1O[C@@](C#N)(c2ccc3c(N)ncnn23)[C@H](O)[C@@H]1O)Oc1ccccc1 [Remdesivir]
cytotoxicity / percent inhibition (MTT assay) (Vero cell line): no inhibition; also recorded: non-toxic

CCN(CCO)CCCC(C)Nc1ccnc2cc(Cl)ccc12 (stereo not drawn) [hydroxychloroquine]
antiviral activity (SARS-CoV-2 [2]): significant antiviral activity
